# According to patent US20220079931A1, “ESTROGEN RECEPTOR PROTEIN DEGRADERS” (THE REGENTS OF THE UNIVERSITY OF MICHIGAN, priority 2019, published 2022):
# What was measured:
# ERα [1] = target: T1, ERα (Homo sapiens, UniProt P03372); assay: Mechanism of ER degradation: pretreatment with VHL ligand, ER ligand or proteasome inhibitor, Western blotting in MCF-7 cells; format: cell-based; design: host or cells: MCF-7; conditions: 32 at 30 nM 4 h
# T1 sequence (P03372 1-595): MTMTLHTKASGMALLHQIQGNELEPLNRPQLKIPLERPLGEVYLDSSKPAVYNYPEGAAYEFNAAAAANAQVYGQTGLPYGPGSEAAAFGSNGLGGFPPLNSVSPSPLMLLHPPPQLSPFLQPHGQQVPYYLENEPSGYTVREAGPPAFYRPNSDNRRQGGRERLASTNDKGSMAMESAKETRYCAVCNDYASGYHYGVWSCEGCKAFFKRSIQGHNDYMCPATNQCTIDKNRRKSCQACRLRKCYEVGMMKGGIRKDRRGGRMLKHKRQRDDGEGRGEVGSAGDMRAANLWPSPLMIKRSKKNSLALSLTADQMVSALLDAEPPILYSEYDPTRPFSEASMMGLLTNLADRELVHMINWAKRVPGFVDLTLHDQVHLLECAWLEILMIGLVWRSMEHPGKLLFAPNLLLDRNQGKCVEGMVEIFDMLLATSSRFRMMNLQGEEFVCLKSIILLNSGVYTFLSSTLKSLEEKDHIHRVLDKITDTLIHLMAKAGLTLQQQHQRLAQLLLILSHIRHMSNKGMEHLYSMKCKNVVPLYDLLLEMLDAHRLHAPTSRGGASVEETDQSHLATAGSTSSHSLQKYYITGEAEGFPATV
# Experimental: (§1) Then whole-cell lysates were analyzed by Western blotting.
# as §1
# Western Blot Analysis. […] Cells treated with indicated compounds were lysed in Radioimmunoprecipitation Assay Protein Lysis and Extraction Buffer (25 mmol/L Tris.HCl, pH 7.6, 150 mmol/L NaCl, 1% Nonidet P-40, 1% sodium deoxycholate, and 0.1% sodium dodecyl sulfate) containing proteinase inhibitor cocktail (Roche Diagnostics, Mannheim, Germany). After determination of protein concentration by BCA assay (Fisher Scientific, Pittsburgh, Pa.), equal amounts of total protein were electrophoresed through 10% SDS-polyacrylamide gels. The separated protein bands were transferred onto PVDF membranes (GE Healthcare Life Sciences, Marlborough, Mass.) and blotted against different antibodies, as indicated. The human estrogen receptor a antibodies (AB16460) were purchased from Abeam, Inc., Cambridge, Mass. The membranes were reblotted with horseradish peroxidase-conjugated anti-glyceraldehyde-3-phosphate dehydrogenase antibody (G9295) from Sigma-Aldrich Corporation, St. Louis, Mo. The blots were scanned and the band intensities were quantified using GelQuant.NET software as described in biochemlabsolutions.com. The relative mean intensity of target proteins was expressed after normalization to the intensity of glyceraldehyde-3-phosphate dehydrogenase bands from individual repeats.
# ERα [2] = target: T1, ERα; assay: ER degradation by Western blotting in MCF-7 cells; format: cell-based; design: host or cells: MCF-7
# Experimental: FIG. 1 is an image showing the Western blotting analysis of ER protein in MCF-7 cells treated with Compounds of the Disclosure and control compounds. Cells were treated with different compounds for 4 h and whole cell lysates were then analyzed by Western blotting to examine the level of ER protein. GADPH protein was used for the loading control. The numbers below the panel represent the ERα/GADPH ratio normalized with the DMSO control at 100.
# FIG. 2 is an image showing the Western blotting analysis of ER protein in the MCF-7 cells treated with indicated compounds at 1 nM, 10 nM and 100 nM. MCF-7 cells were treated with different compounds for 4 h and whole cell lysates were analyzed by Western blotting to examine the level of ER protein. GADPH protein was used for the loading control. The numbers below the panel represent the ERα/GADPH ratio normalized with the DMSO control at 100.
# FIG. 7 is an image showing the ERα degradation dose-response Western blotting for compound 32 at 4 h in MCF-7 cells.
# FIG. 9 is an image showing the time course of ERα degradation by Western blotting by compound 32 (30 nM) and fulvestrant (30 nM) in the MCF-7 cells.
# Cell Culture. Human breast cancer cell lines MCF-7 (ATCC® HTB-22™) and T47D (ATCC® HTB-133™) were purchased from the American Type Culture Collection (ATCC), Manassas, Va., and maintained and cultured in Dulbecco's Modified Eagle's medium (DMEM) containing 10% fetal bovine serum, 1 unit/ml of penicillin and 1 μg/ml of streptomycin. Cells with 3-8 passages after purchase were used in experiments as indicated.
# Western Blot Analysis. Western blot analysis was performed essentially as described previously (Hu et al, 2015, PMID: 26358219). Cells treated with indicated compounds were lysed in Radioimmunoprecipitation Assay Protein Lysis and Extraction Buffer (25 mmol/L Tris.HCl, pH 7.6, 150 mmol/L NaCl, 1% Nonidet P-40, 1% sodium deoxycholate, and 0.1% sodium dodecyl sulfate) containing proteinase inhibitor cocktail (Roche Diagnostics, Mannheim, Germany). After determination of protein concentration by BCA assay (Fisher Scientific, Pittsburgh, Pa.), equal amounts of total protein were electrophoresed through 10% SDS-polyacrylamide gels. The separated protein bands were transferred onto PVDF membranes (GE Healthcare Life Sciences, Marlborough, Mass.) and blotted against different antibodies, as indicated. The human estrogen receptor a antibodies (AB16460) were purchased from Abeam, Inc., Cambridge, Mass. The membranes were reblotted with horseradish peroxidase-conjugated anti-glyceraldehyde-3-phosphate dehydrogenase antibody (G9295) from Sigma-Aldrich Corporation, St. Louis, Mo. The blots were scanned and the band intensities were quantified using GelQuant.NET software as described in biochemlabsolutions.com. The relative mean intensity of target proteins was expressed after normalization to the intensity of glyceraldehyde-3-phosphate dehydrogenase bands from individual repeats.
# MDA-MB-231 = assay: Cell proliferation in triple-negative breast cancer cells; format: cell-based, human; conditions: MDA-MB-231 triple-negative breast cancer cells
# Experimental: Cell Growth Assay. Cells were seeded at 1500/well in 96 well plates overnight. One day after seeding, they were treated with indicated doses of compounds. The growth of the cells was evaluated by colorimetric WST-8 assay 4 days after the compound treatment following the instructions of the manufacturer, Cayman Chemical, Ann Arbor, Mich.
# Fulvestrant achieves an Imax value of 43.8%. […] RAD1901, a previously reported SERD molecule^18, achieves an Imax value of 25.7%.
smiles,measurement,setting,value
"CCN(CCCCCOCC(=O)N[C@H](C(=O)N1C[C@H](O)C[C@H]1C(=O)N[C@@H](C)c1ccc(-c2scnc2C)cc1)C(C)(C)C)CCOc1ccc(C(=O)c2c(-c3ccc(O)cc3)sc3cc(O)ccc23)cc1 [compound 32, (2S,4R)-1-((S)-2-(2-((5-(Ethyl(2-(4-(6-hydroxy-2-(4-hydroxyphenyl)benzo[b]thiophene-3-carbonyl)phenoxy)ethyl)amino)pentyl)oxy)acetamido)-3,3-dimethylbutanoyl)-4-hydroxy-N—((S)-1-(4-(4-methylthiazol-5-yl)phenyl)ethyl)pyrrolidine-2-carboxamide]",blocking of ER degradation by compound 32 with 1 μM VHL ligand 11,ERα [1]; 1 μM VHL ligand 11 pretreatment 2 h,only slightly
same,ER degradation induced by compound 32 on addition of carfilzomib,ERα [1]; 1 μM proteasome inhibitor carfilzomib pretreatment 2 h,significantly reduced
same,ER degradation induced by compound 32 on addition of raloxifene,ERα [1]; 1 μM raloxifene pretreatment 2 h,significantly reduced
same,blocking of ER degradation by compound 32 with 5 μM or 10 μM VHL ligand 11,ERα [1]; 5 μM or 10 μM of 11 pretreatment 2 h,completely blocked
same,reduction of ER protein level at 1 h,"ERα [2]; 30 nM, 1 h treatment",> 80%
same,ER degradation at the 3 h time-point,"ERα [2]; 30 nM, 3 h",essentially complete ER degradation
same,DC50,"ERα [2]; 4 h treatment, read-out: DC50 (concentration to achieve 50% of protein degradation)",0.17 nM
same,maximum ER degradation,ERα [2]; at concentrations as low as 5 nM,> 95%
same,cell proliferation inhibition,MDA-MB-231,does not exhibit the cell proliferation inhibition effects
